Earlier results as cited in patent publication EP0836475B1, “CONTROLLED RELEASE FORMULATIONS FOR POORLY SOLUBLE DRUGS” (ELAN CORPORATION, Plc, priority 1995, dated 1997).

Conditions: ibuprofen from Lutrol-F68

- T50 value of in vitro release: approximately 30 min.
SMILES: CC(C)Cc1ccc(C(C)C(=O)O)cc1 (stereo not shown) [ibuprofen]
